Measured values reported in patent publication US20120309796A1, “BENZOCYCLOHEPTENE ACETIC ACIDS” (priority 2011, published 2012).

What was measured:
[1] = target: T1, human CRTH2 (Homo sapiens, UniProt Q9Y5Y4); test: Calcium Flux Assay Using Fluorometric Imaging Plate Reader (FLIPR); assay type: cell-based; set-up: expressed in transfected cells; host or cells: CHO-K1 previously transfected with G-alpha 16; settings: CHO-K1 cells with G-alpha 16 and human CRTH2; inhibition of DK-PGD2 ligand-induced Ca2+ flux
T1 sequence (Q9Y5Y4 1-395): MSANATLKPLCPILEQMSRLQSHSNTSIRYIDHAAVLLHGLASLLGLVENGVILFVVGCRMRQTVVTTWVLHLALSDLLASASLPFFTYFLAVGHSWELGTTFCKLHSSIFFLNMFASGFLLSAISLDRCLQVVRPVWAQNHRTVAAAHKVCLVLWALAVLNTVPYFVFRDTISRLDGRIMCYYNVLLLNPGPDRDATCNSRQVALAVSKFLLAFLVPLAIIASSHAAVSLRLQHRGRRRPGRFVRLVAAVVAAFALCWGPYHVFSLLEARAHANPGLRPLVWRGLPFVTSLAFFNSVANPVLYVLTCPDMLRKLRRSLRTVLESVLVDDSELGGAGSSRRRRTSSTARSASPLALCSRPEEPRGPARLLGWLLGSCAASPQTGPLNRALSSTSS
Description: CHO-K1 cells previously transfected with G-alpha 16 were subsequently transfected with the human CRTH2 receptor and the neomycin resistance gene. Following selection in 800 μg/mL G418 (geneticin), individual clones were assayed for their receptor expression based on staining with an anti human CRTH2 IgG, followed by assaying for their response to 13,14-dihydro-15-keto Prostaglandin D2 (DK-PDG2) (ligand) in the Ca^2+ Flux assay. Positive clones were then cloned by limiting dilution cloning. The transfected cells were cultured in Ham's F-12 medium supplemented with 10% fetal bovine serum, 2 mM glutamine, 100 U/mL penicillin/100 μg/mL streptomycin, 200 μg/mL hygromycin B, and 800 μg/mL G418 (geneticin). Cells were harvested with trypsin-EDTA (trypsin-ethylenediaminetetraacetic acid) and counted using ViaCount® reagent (from Guava Technologies, Inc. which contains two DNA-binding dyes that enable the reagent user to distinguish between viable and non-viable cells). The cell suspension volume was adjusted to 2.5×10^5 cells/mL with complete growth media. Aliquots of 50 μL were dispensed into BD Falcon™ 384 well black/clear microplates (from BD Biosciences, a division of Becton, Dickinson and Company) and the microplates were placed in a 37° C. CO2 incubator overnight. The following day, the microplates were used in the assay.
Loading Buffer containing dye (from the FLIPR® Calcium 3 Assay Kit from Molecular Devices, a division of MDS Analytical Technologies and MDS Inc.) was prepared by dissolving the contents of one bottle into 200 mL Hank's Balanced Salt Solution containing 20 mM HEPES (4-(2-hydroxyethyl)-1-piperazineethanesulfonic acid) and 2.5 mM probenecid. Growth media was removed from the cell plates and 25 μL of Hank's Balanced Salt Solution (HBSS) containing 20 mM HEPES, 0.05% BSA and 2.5 mM probenecid was added to each well followed by 25 μL of diluted dye using a Multidrop dispenser. The plates were then incubated for 1 hour at 37° C.
During the incubation, test compound plates were prepared by adding 90 μL of HBSS/20 mM HEPES/0.005% BSA buffer to the 2 μL of serial diluted compounds. To prepare serial diluted compounds, 20 mM stocks of compounds were dissolved in 100% DMSO. The compound dilution plate was set up as follows: well #1 received 5 μL of compound plus 10 μL of DMSO. Wells 2-10 received 10 μL of DMSO. 5 μL was mixed and transferred from well #1 into well #2. 1:3 serial dilutions were continued out 10 steps. 2 μl of diluted compound was transferred into duplicate wells of a 384 well “assay plate” and then 90 μL of buffer was added.
After incubation, both the cell and “assay plate” plates were brought to the fluorometric imaging plate reader (FLIPR®) and 20 μL of the diluted compounds were transferred to the cell plates by the FLIPR®. Plates were then incubated for 1 hour at room temperature. After the 1 hour incubation, plates were returned to the FLIPR® and 20 μL of 4.5× concentrated ligand was added to the cell plates. During the assay, fluorescence readings were taken simultaneously from all 384 wells of the cell plate every 1.5 seconds. Five readings were taken to establish a stable baseline, then 20 μL of sample was rapidly (30 μL/sec) and simultaneously added to each well of the cell plate. The fluorescence was continuously monitored before, during and after sample addition for a total elapsed time of 100 seconds. Responses (increase in peak fluorescence) in each well following agonist addition were determined. The initial fluorescence reading from each well, prior to ligand stimulation, was used as a zero baseline value for the data from that well. The responses were expressed as % inhibition of the buffer control. […]

[2] = target: T1, human CRTH2; test: Human CRTH2 Receptor Binding Assay (whole cell, [3H]ramatroban competition); set-up: two mammalian expression vectors that harbored human CRTH2 and G-alpha16 cDNAs; expressed in transfected cells; settings: CHO-K1 cells expressing human CRTH2 and G-alpha16; 20 nM [3H]ramatroban; 1 hour, room temperature
Excerpt: A whole cell receptor binding assay using [^3H]ramatroban as the competing radioactive ligand was employed to evaluate the compound binding activity to human CRTH2. The radioactive ligand [^3H]ramatroban was synthesized according to Sugimoto et. al. (Eur. J. Pharmacol. 2005, 524, 30-37) to a specific activity of 42 Ci/mmol
A cell line stably expressing human CRTH2 was established by transfecting CHO-K1 cells with two mammalian expression vectors that harbored human CRTH2 and G-alpha16 cDNAs, respectively, using FuGene® 6 transfection reagent (from Roche). Stable clones expressing CRTH2 were selected by staining each clone with BM16 (BD Pharmingen™ from BD Biosciences, a division of Becton, Dickinson and Company), which is a rat monoclonal antibody to human CRTH2. The cells were maintained as monolayer cultures in Ham's F-12 medium containing 10% fetal bovine serum, 100 units/mL penicillin, 100 μg/mL streptomycin, 2 mM glutamine, 0.5 mg/mL G418 (geneticin) for CRTH2, and 0.2 mg/mL hygromycin-B (for G-alpha 16). For whole cell receptor binding assay, the monolayer cells were rinsed once with PBS (phosphate buffered saline), dissociated using ethylenediaminetetraacetate (Versene™ EDTA from Lonza Inc.), and suspended in PBS containing 10 mM MgCl2 and 0.06% BSA (bovine serum albumin) at 1.5×10^6 cells/mL.
The binding reactions (0.2 mL) were performed in 96-well plates at room temperature in PBS containing 1.5×10^5 cells, 10 mM MgCl2, 0.06% BSA, 20 nM [^3H]ramatroban, and test compound at various concentrations. After 1 hour of binding reactions, the cells were harvested on GF™/B filter microplates (microtiter plates with embedded glass fiber from PerkinElmer, Inc.) and washed 5 times with PBS using a Filtermate™ Harvester (a cell harvester that harvests and washes cells from microplates from PerkinElmer, Inc.). The radioactivities bound to the cells were determined using a microplate scintillation counter (TopCount® NXT, from PerkinElmer, Inc.) after adding 50 μL of Microscint™ 20 scintillation fluid (from PerkinElmer, Inc.) to each well of the filter plates. The radioactivity from non-specific binding was determined by replacing compound with 10 μM of 15(R)-15-methyl PGD2 (from Cayman Chemical Company) in the reaction mixtures. The radioactivity bound to the cells in the absence of compound (total binding) was determined by replacing compound with 0.25% of DMSO (dimethyl sulfoxide) in the reaction mixture. Specific binding data were obtained by subtracting the radioactivity of non-specific binding from each binding data.
The IC50 value is defined as the concentration of the tested compound that is required for 50% inhibition of total specific binding. In order to calculate the IC50 value, the percent inhibition data were determined for 7 concentrations for each compound. The percent inhibition for a compound at each concentration was calculated according to the following formula, [1-(specific binding in the presence of compound)/(total specific binding)]×100. The IC50 value was then obtained by fitting the percent inhibition data to a sigmoidal dose-response (4 parameter logistic) model in the XLfit® software Excel add-in program [from ID Business Solutions Ltd., model 205, where F(x)=(A+(B−A)/(1+((C/x)̂D)))].

| SMILES | IC50 [1] [nM] | IC50 [2] [nM] |
| --- | --- | --- |
| O=C(O)COc1cccc2c1CCCCC2NS(=O)(=O)c1cc(Cl)cc(Cl)c1 (stereo not drawn) [Example 2, [5-(3,5-Dichloro-benzenesulfonylamino)-6,7,8,9-tetrahydro-5H-benzocyclohepten-1-yloxy]-acetic acid] | 340 | 58.4 |
| O=C(O)COc1cccc2c1CCCCC2NS(=O)(=O)c1ccc(-c2ccccc2)cc1 (stereo not drawn) [Example 4, [5-(Biphenyl-4-sulfonylamino)-6,7,8,9-tetrahydro-5H-benzocyclohepten-1-yloxy]-acetic acid] | 255 | 33.6 |
| CS(=O)(=O)c1cccc(S(=O)(=O)NC2CCCCc3c(OCC(=O)O)cccc32)c1 (stereo not drawn) [Example 5, [5-(3-Methanesulfonyl-benzenesulfonylamino)-6,7,8,9-tetrahydro-5H-benzocyclohepten-1-yloxy]-acetic acid] | 581 | 952 |
| O=C(O)COc1cccc2c1CCCCC2NS(=O)(=O)c1cc(Br)cc(C(F)(F)F)c1 (stereo not drawn) [Example 8, [5-(3-Bromo-5-trifluoromethyl-benzenesulfonylamino)-6,7,8,9-tetrahydro-5H-benzocyclohepten-1-yloxy]-acetic acid] | 36.6 | 47 |
| CN(C1CCCCc2c(OCC(=O)O)cccc21)S(=O)(=O)c1cc(Br)cc(C(F)(F)F)c1 (stereo not drawn) [Example 9, {5-[(3-Bromo-5-trifluoromethyl-benzenesulfonyl)-methyl-amino]-6,7,8,9-tetrahydro-5H-benzocyclohepten-1-yloxy}-acetic acid] | 6.1 | 57.4 |
| O=C(O)COc1cccc2c1CCCCC2NS(=O)(=O)c1ccc(-c2ccc(O)cc2)cc1 (stereo not drawn) [Example 23, [5-(4′-Hydroxy-biphenyl-4-sulfonylamino)-6,7,8,9-tetrahydro-5H-benzocyclohepten-1-yloxy]-acetic acid] | 42.1 | 103 |
| Cc1cncc(-c2ccc(S(=O)(=O)NC3CCCCc4c(OCC(=O)O)cccc43)cc2)c1 (stereo not drawn) [Example 25, {5-[4-(5-Methyl-pyridin-3-yl)-benzenesulfonylamino]-6,7,8,9-tetrahydro-5H-benzocyclohepten-1-yloxy}-acetic acid] | 123 | 33.7 |
| CS(=O)(=O)c1cccc(-c2ccc(S(=O)(=O)NC3CCCCc4c(OCC(=O)O)cccc43)cc2)c1 (stereo not drawn) [Example 29, [5-(3′-Methanesulfonyl-biphenyl-4-sulfonylamino)-6,7,8,9-tetrahydro-5H-benzocyclohepten-1-yloxy]-acetic acid] | 60.6 | 9.1 |

Next, values leading:

| IC50 [1] [nM] | IC50 [2] [nM] | SMILES |
| --- | --- | --- |
| 476 | 26.7 | CC(C)c1cccc(-c2ccc(S(=O)(=O)NC3CCCCc4c(OCC(=O)O)cccc43)nc2)c1 (stereo not drawn) [Example 31, {5-[5-(3-Isopropyl-phenyl)-pyridine-2-sulfonylamino]-6,7,8,9-tetrahydro-5H-benzocyclohepten-1-yloxy}-acetic acid] |
|  | 2120 | CN(C1CCCCc2c(OCC(=O)O)cccc21)S(=O)(=O)c1ccc(-c2cccc(CCO)c2)cn1 (stereo not drawn) [Example 38, [5-({5-[3-(2-Hydroxy-ethyl)-phenyl]-pyridine-2-sulfonyl}-methyl-amino)-6,7,8,9-tetrahydro-5H-benzocyclohepten-1-yloxy]-acetic acid] |
|  | 514 | Cc1ccc(-c2cccc(S(=O)(=O)NC3CCCCc4c(OCC(=O)O)cccc43)c2)cc1 (stereo not drawn) [Example 39, [5-(4′-Methyl-biphenyl-3-sulfonylamino)-6,7,8,9-tetrahydro-5H-benzocyclohepten-1-yloxy]-acetic acid] |
|  | 555 | Cc1ccc(-c2cccc(S(=O)(=O)N(C)C3CCCCc4c(OCC(=O)O)cccc43)c2)cc1 (stereo not drawn) [Example 40, {5-[Methyl-(4′-methyl-biphenyl-3-sulfonyl)-amino]-6,7,8,9-tetrahydro-5H-benzocyclohepten-1-yloxy}-acetic acid] |
|  | 845 | CC(C)c1cccc(-c2cccc(S(=O)(=O)N(C)C3CCCCc4c(OCC(=O)O)cccc43)c2)c1 (stereo not drawn) [Example 42, {5-[(3′-Isopropyl-biphenyl-3-sulfonyl)-methyl-amino]-6,7,8,9-tetrahydro-5H-benzocyclohepten-1-yloxy}-acetic acid] |
|  | 298 | CC(C)c1cc(C(F)(F)F)cc(S(=O)(=O)NC2CCCCc3c(OCC(=O)O)cccc32)c1 (stereo not drawn) [Example 43, [5-(3-Isopropyl-5-trifluoromethyl-benzenesulfonylamino)-6,7,8,9-tetrahydro-5H-benzocyclohepten-1-yloxy]-acetic acid] |
|  | 199 | CC(C)c1cc(C(F)(F)F)cc(S(=O)(=O)N(C)C2CCCCc3c(OCC(=O)O)cccc32)c1 (stereo not drawn) [Example 44, {5-[(3-Isopropyl-5-trifluoromethyl-benzenesulfonyl)-methyl-amino]-6,7,8,9-tetrahydro-5H-benzocyclohepten-1-yloxy}-acetic acid] |
